Values quoted from earlier work in article PMC8198792, “Prediction of Anticancer Peptides with High Efficacy and Low Toxicity by Hybrid Model Based on 3D Structure of Peptides” (International Journal of Molecular Sciences, 2021).
Read-outs that look alike come from different tables or passages of the source.

Experiments:
[1] = system: cancer cell lines; parameters: method as in 6 sources, ref CancerPPD [45] and SATPdb ||| ref CancerPPD/SATPdb ||| ref CancerPPD, SATPdb, Swissprot (PDB) ||| ref CancerPPD/SATPdb/Swissprot(PDB) ||| ref CancerPPD / SATPdb ||| ...; details: cited from earlier work
Text: Supplement ijms-22-05630-s001.zip/ACPs(seguence).xlsx, sheet "D1" | column: Activity || Supplement ijms-22-05630-s001.zip/ACPs(seguence).xlsx, sheet "D2" | column: Activity || Supplement ijms-22-05630-s001.zip/ACPs(seguence).xlsx, sheet "D3" | column: Activity || (+ 2 further places)

[2] = system: erythrocytes; details: cited from earlier work
Text: Supplement ijms-22-05630-s001.zip/Hemloytic Peptides(seguence).xlsx, sheet "HD1" | column: Activity || Supplement ijms-22-05630-s001.zip/Hemloytic Peptides(seguence).xlsx, sheet "HD2" | column: Activity || Supplement ijms-22-05630-s001.zip/Hemloytic Peptides(seguence).xlsx, sheet "HD3" | column: Activity

[3] = ACPs dataset D3 (supplement sheet "D3"), 1 = ACP, 0 = non-ACP, ref CancerPPD [45] and SATPdb
[4] = ACPs dataset D4 (sheet "D4"), label 1 = ACP, 0 = non-ACP, ref CancerPPD / SATPdb
[5] = ACPs dataset D5, sheet "D5", label 1 = ACP, 0 = non-ACP, ref CancerPPD [45] and SATPdb
[6] = Hemolytic peptides dataset HD2, label 1 = hemolytic, 0 = non-hemolytic, ref Hemolytik/SATPdb
[7] = hemolytic peptides dataset HD3, 1 = hemolytic (positive set), 0 = non-hemolytic (negative set), labels taken from databases, ref Hemolytik/SATPdb
[8] = ACPs dataset D1, label 1 = ACP, 0 = non-ACP (non-anticancer AMPs from SATPdb), ref CancerPPD/SATPdb
[9] = ACPs dataset D3 (sheet "D3"), label 1 = ACP, 0 = non-ACP, ref CancerPPD/SATPdb
[10] = ACPs dataset D4 (sheet "D4"), label 1 = ACP (CancerPPD ID), 0 = non-ACP (non-anticancer AMP, SATPdb ID), ref CancerPPD [45] and SATPdb
[11] = natural hemolytic peptide dataset HD1, label collected from databases, ref Hemolytik [49], SATPdb [34]

## IWRIFRRIFRIF [satpdb11167]
[1]; [3]
  Activity: 0
[1]; [4]
  Activity: 0
[1]; [5]
  Activity: 0
[2]; [6]
  Activity: 1
[2]; [7]
  Activity: 1

## KEKLKLKCKAPKCYNDKLACT [satpdb13157]
[1]; [8]
  Activity: 0
[1]; [4]
  Activity: 0
[2]
  Activity: 0
  Activity (dataset HD1, hemolytic 1 / non-hemolytic 0): 0

## KKKAAAFAAWAAFAKKK [satpdb11969]
[1]; [9]
  Activity: 0
[1]; [4]
  Activity: 0
[1]; [5]
  Activity: 0
[2]
  Activity: 0

## KKKKKKAAAAFWAAAAF [satpdb11398]
[1]; [3]
  Activity: 0
[1]; [4]
  Activity: 0
[1]; [5]
  Activity: 0
[2]
  Activity: 0

## KKKLLLLLLLLLKKK [satpdb10761]
[1]; [3]
  Activity: 0
[1]; [4]
  Activity: 0
[1]; [5]
  Activity: 0
[2]; [6]
  Activity: 1
[2]; [7]
  Activity: 1

## KKLFKKiLKYL [satpdb14620]
[1]; [9]
  Activity: 0
[1]; [4]
  Activity: 0
[1]; [5]
  Activity: 0
[2]
  Activity: 0

## KKVVFKVKFKK [satpdb13401]
[1]; [9]
  Activity: 0
[1]; [4]
  Activity: 0
[1]; [5]
  Activity: 0
[2]
  Activity: 0

## KLalKLALKALKAALKLA [satpdb12751]
[1]; [9]
  Activity: 0
[1]; [4]
  Activity: 0
[1]; [5]
  Activity: 0
[2]
  Activity: 1

## KNLRRIIRKGIHIIKKYF [satpdb11799]
[1]; [8]
  Activity: 0
[1]; [10]
  Activity: 0
[2]
  Activity: 1
  Activity (dataset HD1, hemolytic 1 / non-hemolytic 0): 1

## KWAKKWKWFAKAAWKWYKK [satpdb12565]
[1]; [9]
  Activity: 0
[1]; [4]
  Activity: 0
[1]; [5]
  Activity: 0
[2]; [6]
  Activity: 1
[2]; [7]
  Activity: 1

## KWFKKIPKFLHLAKKF [compound 1150]
[1]; [3]
  Activity: 1
[1]; [10]
  Activity: 1
[1]; ACPs dataset D5 (sheet "D5"), label 1 = ACP (positive set), 0 = non-ACP (negative set), ref CancerPPD [45] and SATPdb
  Activity: 1
[2]; [6]
  Activity: 1
[2]; [7]
  Activity: 1

## KWFRVYRGIYRRR [satpdb13764]
[1]; [9]
  Activity: 0
[1]; [4]
  Activity: 0
[1]; [5]
  Activity: 0
[2]
  Activity: 0

## KWKKLLKKPLKLLKKLLK [satpdb12290]
[1]; [9]
  Activity: 0
[1]; [4]
  Activity: 0
[1]; [5]
  Activity: 0
[2]
  Activity: 1

## KWKKPLLKKLLKKL [satpdb12744]
[1]; [9]
  Activity: 0
[1]; [4]
  Activity: 0
[1]; [5]
  Activity: 0
[2]
  Activity: 1

## KWKSFLKTFKSAKKKVLHKALKAISS [satpdb10714]
[1]; [3]
  Activity: 0
[1]; [4]
  Activity: 0
[1]; [5]
  Activity: 0
[2]; [6]
  Activity: 1
[2]; [7]
  Activity: 1

## KWKSFLKTFKSAKKTVLHTALKLISS [satpdb12569]
[1]; [9]
  Activity: 0
[1]; [4]
  Activity: 0
[1]; [5]
  Activity: 0
[2]
  Activity: 1

## KfKLKQ [satpdb10387]
[1]; [3]
  Activity: 0
[1]; [4]
  Activity: 0
[1]; [5]
  Activity: 0
[2]; [6]
  Activity: 0
[2]; [7]
  Activity: 0

## LALKSGGWLRLFGLKDKKH [satpdb12814]
[1]; [8]
  Activity: 0
[1]; [4]
  Activity: 0
[2]; [7]
  Activity: 1
[2]; [11]
  Activity (dataset HD1, hemolytic 1 / non-hemolytic 0): 1

## LKKLLKWLKKL [satpdb13099]
[1]; [9]
  Activity: 0
[1]; [4]
  Activity: 0
[1]; [5]
  Activity: 0
[2]
  Activity: 1

## LKWLLKWLL [satpdb12315]
[1]; [9]
  Activity: 0
[1]; [4]
  Activity: 0
[1]; [5]
  Activity: 0
[2]; [6]
  Activity: 1
[2]; [7]
  Activity: 1

## LLIILKKKWKKQAKAKSK [satpdb13450]
[1]; [9]
  Activity: 0
[1]; [4]
  Activity: 0
[1]; [5]
  Activity: 0
[2]; [6]
  Activity: 1
[2]; [7]
  Activity: 1

## LLIILRRRWRKQAKAKSK [satpdb12920]
[1]; [9]
  Activity: 0
[1]; [4]
  Activity: 0
[1]; [5]
  Activity: 0
[2]
  Activity: 1

## LLIILRRRWRKQARARSK [satpdb13104]
[1]; [9]
  Activity: 0
[1]; [4]
  Activity: 0
[1]; [5]
  Activity: 0
[2]
  Activity: 1

## LLIILRRRWRRQARARSR [satpdb11798]
[1]; [3]
  Activity: 0
[1]; [4]
  Activity: 0
[1]; [5]
  Activity: 0
[2]
  Activity: 1

## LLLFLLKKRKKRKY [satpdb12213]
[1]; [8]
  Activity: 0
[1]; [10]
  Activity: 0
[2]
  Activity: 1
  Activity (dataset HD1, hemolytic 1 / non-hemolytic 0): 1

## LNWGALLKHLLK [satpdb12233]
[1]; [9]
  Activity: 0
[1]; [4]
  Activity: 0
[1]; [5]
  Activity: 0
[2]
  Activity: 1

## MQFITDLIKKAVDFFKGLFGNK [satpdb11952]
[1]; [8]
  Activity: 0
[1]; [10]
  Activity: 0
[2]; [7]
  Activity: 1
[2]; [11]
  Activity (dataset HD1, hemolytic 1 / non-hemolytic 0): 1

## PICKRNGLPVCGETCTLGTCYTQGCTCSW [satpdb10279]
[1]; [8]
  Activity: 0
[1]; [10]
  Activity: 0
[2]; [7]
  Activity: 1
[2]; [11]
  Activity (dataset HD1, hemolytic 1 / non-hemolytic 0): 1

## QLKVDLWGTRSGIQPEQHSSGKSDVRRWRSRY [satpdb10403]
[1]; [3]
  Activity: 0
[1]; [4]
  Activity: 0
[1]; [5]
  Activity: 0
[2]
  Activity: 0

## QPTRRPRPGTGPGRRPRPRPRP [satpdb11920]
[1]; [8]
  Activity: 0
[1]; [10]
  Activity: 0
[2]
  Activity: 0
  Activity (dataset HD1, hemolytic 1 / non-hemolytic 0): 0

## RFGRFLRKIRRFRPKVTITIQGSARFG [satpdb11815]
[1]; [8]
  Activity: 0
[1]; [10]
  Activity: 0
[2]
  Activity: 1
  Activity (dataset HD1, hemolytic 1 / non-hemolytic 0): 1

## RKLRRLKRKIAHKVKKY [satpdb10022]
[1]; [3]
  Activity: 0
[1]; [4]
  Activity: 0
[1]; [5]
  Activity: 0
[2]
  Activity: 0

## RLKELITTGGQKIGEKIRRIGQRIKDFFKNLQPREEKS [satpdb11766]
[1]; [8]
  Activity: 0
[1]; [10]
  Activity: 0
[2]
  Activity: 1
  Activity (dataset HD1, hemolytic 1 / non-hemolytic 0): 1

## RRWPWWPWKWPLI [satpdb10003]
[1]; [3]
  Activity: 0
[1]; [4]
  Activity: 0
[1]; [5]
  Activity: 0
[2]
  Activity: 1

## RWSVYAYVRVRGVLVRYRRSW [satpdb10414]
[1]; ACPs dataset D1, 1 = ACP (positive), 0 = non-ACP (negative), label taken from databases, ref CancerPPD [45] and SATPdb
  Activity: 0
[1]; [10]
  Activity: 0
[2]
  Activity: 1
  Activity (dataset HD1, hemolytic 1 / non-hemolytic 0): 1

## TSRCIFYRRKKCS [satpdb13333]
[1]; [8]
  Activity: 0
[1]; [4]
  Activity: 0
[2]
  Activity: 1
  Activity (dataset HD1, hemolytic 1 / non-hemolytic 0): 1

## VCGETCFGGTCNTPGCSCTWPICTRDGLP [satpdb10452]
[1]; [8]
  Activity: 0
[1]; [10]
  Activity: 0
[2]; [7]
  Activity: 1
[2]; [11]
  Activity (dataset HD1, hemolytic 1 / non-hemolytic 0): 1

## VFQFLGKIIHHVGNFVHGFSHVF [satpdb12167]
[1]; [8]
  Activity: 0
[1]; [10]
  Activity: 0
[2]; [7]
  Activity: 1
[2]; [11]
  Activity (dataset HD1, hemolytic 1 / non-hemolytic 0): 1

## VKLGVyPLKVKLyP [satpdb12769]
[1]; [9]
  Activity: 0
[1]; [4]
  Activity: 0
[1]; [5]
  Activity: 0
[2]
  Activity: 1

## VKLKVyPLKVKLyP [satpdb10236]
[1]; [3]
  Activity: 0
[1]; [4]
  Activity: 0
[1]; [5]
  Activity: 0
[2]
  Activity: 1

## VKLKVyPLKvKLyP [satpdb12258]
[1]; [9]
  Activity: 0
[1]; [4]
  Activity: 0
[1]; [5]
  Activity: 0
[2]; [6]
  Activity: 1
[2]; [7]
  Activity: 1

## VKLKVypLKVKLyP [satpdb10873]
[1]; [3]
  Activity: 0
[1]; [4]
  Activity: 0
[1]; [5]
  Activity: 0
[2]; [6]
  Activity: 1
[2]; [7]
  Activity: 1

## VKLkVyPLKVKLyP [satpdb13685]
[1]; [9]
  Activity: 0
[1]; [4]
  Activity: 0
[1]; [5]
  Activity: 0
[2]
  Activity: 1

## VKLyPVKLyP [satpdb11941]
[1]; [3]
  Activity: 0
[1]; [4]
  Activity: 0
[1]; [5]
  Activity: 0
[2]; [6]
  Activity: 1
[2]; [7]
  Activity: 1

## VKlKVyPLKVKLyP [satpdb13308]
[1]; [9]
  Activity: 0
[1]; [4]
  Activity: 0
[1]; [5]
  Activity: 0
[2]
  Activity: 1

## VNSKKISPKSIKVSK [satpdb10612]
[1]; [3]
  Activity: 0
[1]; [4]
  Activity: 0
[1]; [5]
  Activity: 0
[2]; [6]
  Activity: 1
[2]; [7]
  Activity: 1
